Results taken from patent US20160339099A1, “SYNERGISTIC COMBINATION OF ANALGESIC DRUGS” (priority 2013, published 2016).

Columns and labels:
Nav1.7 null mutant human [1] = assay: Human processing of tonic radiant heat under naloxone (ratings, EEG); type: in vivo
Procedure: (§1) A Nav1.7 loss of function pain-free […] ([…]) was tested under baseline, saline, and naloxone (6 mg) bolus and 0.1 mg/minute infusion treatment. The forearm was stimulated with radiant heat (CO2 lasers).
We delivered tonic stimuli, at the constant temperature of 42, 45, and 48° C. for 20 sec. ML rated online fluctuations in perceived intensity on a visual analog scale. Identical stimuli were rated higher after administration of naloxone in comparison to both the baseline and saline conditions.
Furthermore, we measured the electroencephalogram (EEG) responses induced by tonic radiant heat stimulation: in other words, we looked at the effect of the nociceptive stimulation on brain rhythms.
(§2) Tonic radiant heat was administered over 25 seconds, while the participants rated online the intensity of the heat on a visual analogue scale. The results are depicted in FIG. 11B.

normal mice = assay: Hargreaves test after naloxone in normal mice; type: in vivo; settings: 2 mg/kg naloxone intraperitoneal
Procedure: (§3) Thermal nociceptive thresholds were measured using the paw-withdrawal latency according to the method described by Hargreaves et al. (1988), with minor modifications (Minett et al. 2011). Briefly, mice were left to acclimatise within an IITC Hargreaves stand for at least 1 hour. Three withdrawal responses were measured per animal. The mice were then left to resettle for at least 30 minutes before the drug treatment.
(§4) Mice received intraperitoneal injections of either 2 mg/kg naloxone or the equivalent volume of vehicle.

Nav1.7 null mutant human [2] = assay: Human processing of phasic radiant heat (laser pulses) under naloxone; type: in vivo
Procedure: as §1
Laser pulses of the same energy (fluency 0.6 j/mm^2) were given to the forearm. The energy used typically evokes a sensation of sharp pinprick pain in healthy volunteers. […] However, naloxone enhanced the detection rate of laser pulses to 80%. ML felt 37.5% of the detected stimuli as pinprick, while the other sensations were described as a slow heat, or warmth. Ratings were low (mean 6.1, range 0.5-15) in a perceived intensity scale ranging from 0-100.
(§5) We evaluated the probability of detecting 9-ms radiant heat pulses in a Nav1.7 null mutant human patient and in three age-matched, healthy human controls. Radiant heat was used to selectively stimulate intra-epidermal free-nerve endings, without touch. The results are depicted in FIG. 11A.

healthy human controls = assay: Radiant heat stimuli under naloxone in healthy controls; type: in vivo; settings: healthy patients
Procedure: as §5, §2

[3] = system: Nav1.7 loss of function pain-free; assay: Human radiant heat detection thresholds (warmth, pinprick) under naloxone; type: in vivo; settings: naloxone 6 mg bolus and 0.1 mg/minute infusion
Procedure: as §1
Warmth threshold reflects activation of unmyelinated C-fibres, while pinprick threshold is mediated by small-myelinated A-delta fibres (LaMotte et al 1978). Detection thresholds were assessed by slowly increasing the temperature of the stimulus (rate 1 deg/sec), after a neutral baseline of variable length (5-10 seconds). The participant was asked to press a button, to stop the stimulus as soon it was detected as warm or pinprick. At baseline, ML perceived only 1 of the 6 stimulus ramps. All the stimuli were detected in the subsequent saline and naloxone sessions.

[4] = system: Nav1.7 loss of function pain-free; assay: Tactile sensitivity under naloxone; type: in vivo, human; settings: baseline, saline and naloxone conditions
Nav1.7 null mutant mice = assay: Hargreaves test after naloxone in Nav1.7 null mutant mice; type: in vivo; settings: 2 mg/kg naloxone intraperitoneal; Nav1.7 Advill tissue-specific null mutant mice
Procedure: The analgesia found in Nav1.7 null mutant mice was measured with the Hargreaves apparatus, which is a measure of acute thermal pain (Minett et al. 2011, Minett et al. 2012).
as §3, §4

[5] = system: inflammatory hyperalgesia in a murine thermal pain model; assay: Complete Freund's Adjuvant thermal hyperalgesia, Hargreaves test (Example 2); type: in vivo, mice; settings: intraplantar 1 microgram each; three days post CFA
Procedure: Baseline thermal thresholds were recorded for each animal before 20 μl Complete Freund's Adjuvant (Sigma) was injected subcutaneously into the plantar aspect of a hind paw using a Hamilton syringe and 30 G needle. Three days post Complete Freund's Adjuvant injections thermal threshold were measured before to drug treatment.
(§6) Mice received 20 μl intraplantar injections of either; • 1 μg Phlotoxin-1, • 1 μg Buprenorphine, • combined 1 μg Phlotoxin-1 and 1 μg Buprenorphine • or vehicle.

[6] = system: murine acute thermal pain model; assay: Hargreaves test, murine acute thermal pain model, intraplantar drug treatment; settings: 1 μg of each drug, 20 μl intraplantar injection, compared with control mice
Procedure: as §6

Nav1.7 [7] = molecular target: T1, Nav1.7 (Homo sapiens, UniProt Q15858); assay: Whole cell voltage clamp of Nav1.7 activity in transfected HEK293 cell line; type: cell-based; set-up: expressed in transfected cells; host or cells: HEK293; settings: 0.25 μM, HEK293 cell line transfected with human Nav1.7
Procedure: Specifically, HEK293 (ATCC) cells are transfected with Nav1.7 or other sodium channel cDNA constructs in a vector co-expressing a fluorescent marker protein using lipofectamine 2000 or other transfection method and plated onto poly-d-lysine coated coverslips. All recordings are done 24-72 hours after transfection
Whole-cell voltage clamp recordings are performed using an Axopatch 200 B amplifier at room temperature using standard techniques. Extracellular solution comprised (mM) NaCl 145, KCl 4, CaCl2 1.8, MgCl2 1, HEPES 10, (pH 7.35 with NaOH); intracellular (mM) CsCl 150, EGTA 10, HEPES 10, (pH 7.35 with CsOH). […] Tau of inactivation was measured by fitting a standard exponential function to the decaying current and persistent current was determined by measuring the current 20 ms after the start of the voltage step and expressing it as a percentage of the transient current in the same step. To assess voltage dependence of activation current-voltage families were obtained and peak sodium currents measured at each voltage. Channel conductance was calculated using the formula GNa=I/(V−Vrev) where GNa is sodium conductance, I is peak current, V is the voltage step and Vrev is the measured reversal potential which was determined for each cell by fitting a straight line through the linear portion of the current-voltage relationship. […]

Nav1.7 [8] = molecular target: T1, Nav1.7; settings: Escoubas et al. 2006, Bosmans et al. 2005; cited from earlier work
Nav1.7 [9] = molecular target: T1, Nav1.7; settings: Yang et al. 2013; read-out: IC50 for inhibition of Nav1.7; cited from earlier work
[10] = scale ranging from 0-100, naloxone

T1 sequence (Q15858 whole entry): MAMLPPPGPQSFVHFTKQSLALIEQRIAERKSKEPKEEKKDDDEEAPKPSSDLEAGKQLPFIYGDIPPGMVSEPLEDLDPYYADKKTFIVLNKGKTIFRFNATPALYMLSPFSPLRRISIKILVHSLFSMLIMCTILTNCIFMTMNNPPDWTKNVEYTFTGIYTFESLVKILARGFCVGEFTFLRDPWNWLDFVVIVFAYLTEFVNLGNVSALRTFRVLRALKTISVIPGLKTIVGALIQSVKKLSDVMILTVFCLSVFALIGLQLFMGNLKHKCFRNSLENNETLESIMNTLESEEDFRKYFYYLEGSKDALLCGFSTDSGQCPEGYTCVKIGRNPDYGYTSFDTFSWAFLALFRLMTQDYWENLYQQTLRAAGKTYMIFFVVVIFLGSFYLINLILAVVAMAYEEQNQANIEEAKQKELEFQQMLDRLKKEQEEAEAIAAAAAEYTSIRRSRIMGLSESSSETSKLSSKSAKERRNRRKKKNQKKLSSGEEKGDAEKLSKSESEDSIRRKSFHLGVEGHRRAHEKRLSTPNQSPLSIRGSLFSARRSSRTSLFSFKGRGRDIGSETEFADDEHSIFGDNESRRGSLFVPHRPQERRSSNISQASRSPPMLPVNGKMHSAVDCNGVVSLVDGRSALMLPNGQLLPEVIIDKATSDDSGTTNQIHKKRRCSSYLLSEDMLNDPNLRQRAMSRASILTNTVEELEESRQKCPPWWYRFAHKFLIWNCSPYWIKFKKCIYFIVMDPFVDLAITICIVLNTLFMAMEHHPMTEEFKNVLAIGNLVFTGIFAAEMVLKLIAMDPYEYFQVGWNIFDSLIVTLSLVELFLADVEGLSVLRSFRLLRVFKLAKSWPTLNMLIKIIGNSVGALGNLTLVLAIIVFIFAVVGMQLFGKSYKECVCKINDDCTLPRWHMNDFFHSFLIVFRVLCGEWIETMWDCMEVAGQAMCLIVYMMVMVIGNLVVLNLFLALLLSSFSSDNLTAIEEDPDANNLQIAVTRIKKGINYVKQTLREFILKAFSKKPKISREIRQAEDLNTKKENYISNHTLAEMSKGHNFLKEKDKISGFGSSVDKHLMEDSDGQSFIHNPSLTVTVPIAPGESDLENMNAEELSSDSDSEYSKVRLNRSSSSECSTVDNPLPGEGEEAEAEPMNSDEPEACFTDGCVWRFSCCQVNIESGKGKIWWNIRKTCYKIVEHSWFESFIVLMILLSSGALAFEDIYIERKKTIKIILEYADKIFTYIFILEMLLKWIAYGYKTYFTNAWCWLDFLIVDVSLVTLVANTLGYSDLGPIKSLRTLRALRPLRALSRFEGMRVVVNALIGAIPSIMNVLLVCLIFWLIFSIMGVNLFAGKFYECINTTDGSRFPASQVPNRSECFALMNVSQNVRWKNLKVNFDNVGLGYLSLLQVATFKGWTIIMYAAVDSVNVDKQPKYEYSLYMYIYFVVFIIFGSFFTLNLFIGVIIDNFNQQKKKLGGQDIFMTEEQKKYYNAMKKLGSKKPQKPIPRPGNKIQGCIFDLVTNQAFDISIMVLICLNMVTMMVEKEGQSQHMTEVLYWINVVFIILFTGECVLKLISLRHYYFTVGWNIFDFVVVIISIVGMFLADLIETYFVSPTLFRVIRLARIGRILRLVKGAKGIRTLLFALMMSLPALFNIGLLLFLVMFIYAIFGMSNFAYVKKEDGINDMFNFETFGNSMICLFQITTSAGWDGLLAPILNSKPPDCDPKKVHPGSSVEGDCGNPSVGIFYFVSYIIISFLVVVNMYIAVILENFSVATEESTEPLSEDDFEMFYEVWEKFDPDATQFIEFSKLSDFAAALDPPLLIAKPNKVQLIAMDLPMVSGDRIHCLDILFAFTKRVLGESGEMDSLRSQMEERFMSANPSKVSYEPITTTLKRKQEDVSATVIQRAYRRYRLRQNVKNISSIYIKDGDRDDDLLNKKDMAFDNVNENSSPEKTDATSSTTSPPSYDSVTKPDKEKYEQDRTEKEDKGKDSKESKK

Compound: C=CCN1CC[C@]23c4c5ccc(O)c4O[C@H]2C(=O)CC[C@@]3(O)[C@H]1C5 [naloxone]
- perceived intensity rating of tonic stimuli (visual analog scale) versus baseline and saline (Nav1.7 null mutant human [1]; 42, 45 and 48° C. for 20 sec, naloxone): rated higher
- EEG alpha and beta power during tonic radiant heat (Nav1.7 null mutant human [1]; naloxone): reduced
- EEG low and high gamma induced oscillations relative to baseline and saline (Nav1.7 null mutant human [1]; naloxone): enhancement
- intensity ratings of tonic radiant heat on visual analogue scale (Example 14) (Nav1.7 null mutant human [1]; tonic radiant heat over 25 seconds, Nav1.7 null human): strongly increased
- effect on pain thresholds, Hargreaves test (normal mice): does not alter pain thresholds
- probability of detecting 9-ms radiant heat pulses (Nav1.7 null mutant human [2]; bolus of 6 mg naloxone followed by infusion at 0.1 mg/minute, Nav1.7 null mutant): 80%
- detection rate of laser pulses (Nav1.7 null mutant human [2]; fluency 0.6 j/mm2, forearm, naloxone, none perceived at baseline and saline): 80%
- detected stimuli felt as pinprick (Nav1.7 null mutant human [2]; naloxone): 37.5%
- perceived intensity rating of laser pulses, mean (Nav1.7 null mutant human [2]; [10]): 6.1
- perceived intensity rating of laser pulses, range (Nav1.7 null mutant human [2]; [10]): 0.5-15
- sensitisation to noxious stimuli (phasic and tonic radiant heat) (healthy human controls): no effect
- trials in which pinprick stimuli were reported "surprisingly uncomfortable" [3]: 66%
- reduction of pinprick detection thresholds relative to saline ([3]; forearm radiant heat): 1.7 °C
- reduction of warmth detection thresholds relative to saline ([3]; forearm radiant heat): 7 °C
- tactile sensitivity [4]: remained unchanged
- effect on the analgesia of Nav1.7 null mutant mice, Hargreaves test (Nav1.7 null mutant mice): partially reverses

Compound: Phlotoxin-1
- effect on inflammatory (CFA) thermal hyperalgesia, Hargreaves test [5]: much lesser effects
- analgesia in the Hargreaves test (paw-withdrawal latency) [6]: no analgesia
- inhibition of functional Nav1.7 voltage-gated channel activity (Nav1.7 [7]): completely inhibits
- selective affinity for Nav1.7 compared to other expressed sodium channels (Nav1.7 [8]): sub-micromolar

Compound: μ-SLPTX-Ssm6a
- IC50 (Nav1.7 [9]): ~25 nM
